Data: US7666996B2, “Casein derived peptides and uses thereof” (priority 2000, dated 2010)

Legend:
[1] = test system: Non-Obese Diabetic (NOD) mice; assay: Glucosuria in Non-Obese Diabetic (NOD) mice; assay type: in vivo; settings: for Healthy/Total (sugar not detected in urine): female NOD mice, 100 μg synthetic peptide once weekly for 5 weeks, evaluated after 25 weeks; for Urine Sugar: individual healthy NOD mice, after 25 weeks; for prevention of glucosuria (in words): 100 μg once weekly for 5 weeks, 25 weeks
Method: Juvenile (Type I, IDDM) diabetes in Non-Obese Diabetic (NOD) mice:
Peptides derived from natural casein: NOD mice are a commonly used model for research of autoimmune disease and human Juvenile Diabetes. Six week old female NOD mice received either one or two injections per week of 100 μg of peptides derived from natural casein, for a total of 5 or 10 treatments. Control mice received no treatment. The severity of disease was determined according to glucosuria, which was measured using Combi test sticks [Gross, D. J. et al (1994), Diabetology, 37:1195]. Results were expressed as the percent of glucosuria-free mice in each sample over a 365-day period.
Synthetic peptides derived from casein: In another experiment, 6 week old female NOD mice received one injection per week of 100 μg of Synthetic peptides derived from casein for a total of 5 treatments. Control mice received no treatment. Results were expressed as the number of healthy mice in the various treated groups.

[2] = test system: Non-Obese Diabetic (NOD) mice; assay: Intraperitoneal Glucose Tolerance Test (IPGTT) in NOD mice; assay type: in vivo; settings: individual healthy NOD mice, 25 weeks after peptides; for IPGT TEST 60 min. post load plasma glucose: 60 min after i.p. glucose 1 g/kg; for IPGT TEST 0 min. (pre-load) plasma glucose: before glucose load
Method: Intraperitoneal Glucose Tolerance Test (IPGTT): The glucose tolerance test is the definitive method for investigating glucose metabolism and diabetic tendencies in mammals. Twenty five (25) weeks after receiving Synthetic peptides derived from casein, response to a glucose load was assessed with an intraperitoneal glucose tolerance test. Glucose injection consisted of 1 g/kg body weight. Glycemic values were determined from blood drawn prior to test (0 minutes) and 60 minutes after loading.

[3] = test system: irradiated, bone marrow transplanted mice; assay: Leukocyte and platelet reconstitution in bone marrow transplant recipient mice; assay type: in vivo; settings: for white blood cell reconstitution (in words): F1 mice, 750 cGy, 1 mg i.v., days 5 and 7 post-reconstitution
Method: Leukocyte and platelet reconstitution in bone marrow transplant recipient Mice: BALB/c mice were sub-lethally irradiated at a source to skin distance of 70 cm, dosage of 50 cGy per minute, for a total of 600 cGy. The irradiated mice were […] casein, synthetic peptides derived from casein (13-26 amino acids, see Table 3 above), or human serum albumin (controls), following a double-blinded protocol. Leukocyte reconstitution was determined according to cell count in peripheral blood collected at indicated intervals from 6 to 12 days post treatment. Platelet reconstitution was determined by cell count in blood collected from the retro orbital plexus, into EDTA-containing vials, at indicated intervals from day 6 to day 15 post treatment. […]
In a third series of experiments, the mice were irradiated (800 cGy), reconstituted and injected intraperitoneally with 1.0 mg synthetic peptides derived from casein (peptides 3a and 4P, representing the first 6 and 12 amino acids of the N terminus of αS1 casein, respectively—see Table 3 above) daily, on days 4, 5, 6 and 7 post-transplantation. Platelet reconstitution was assayed at 10 and 12 days post-transplantation.
In a fourth series of experiments, F1 mice were irradiated (750 cGy), reconstituted with syngeneic bone marrow, and injected intravenously 24 hours later with 1 mg per mouse of synthetic peptides derived from casein representing amino acids 1-22 of the N terminus of αS1 casein. In addition, 2 (two) groups of mice were treated each with a natural fraction of αS1 casein position 1-23, and a fraction of peptides derived from natural κ-casein, representing amino acid coordinates 106-169 of κ-casein (SEQ ID NO: 27). WBC counts were conducted on days 5, 7, 10 and 12 post-transplantation.

[4] = test system: female C57B⅙j mice fed an atherogenic diet; assay: Diet-induced hypercholesterol/hyperlipidemia in mice; assay type: in vivo; settings: one week post 1 mg i.p.; for HDL: diet control 54.5; for LDL: diet control 326; for Total cholesterol (TC): diet control 393
Method: The ability of synthetic casein derived peptides to reduce cholesterol levels in 7-week old female C57B⅙j mice was assessed after feeding an atherogenic diet. The mice were divided into groups of 8. One control group was fed a normal diet. A second control group was fed the modified Thomas Hartroft diet containing cholate (#TD 88051: Teklad, Madison, Wis.) [Gerber, D. W. et al., Journal of Lipid Research. 42, 2001]. The remaining experimental groups were all fed the modified Thomas Hartroft diet.
Cholestrol blood levels were determined according to Roche Cholesterol Assay based on Roeschlou & Allin enzymatic method (Roche, Inc., Germany).

[5] = test system: HIV-1 (CEM lymphocyte cells); assay: Inhibition of HIV-1 infection of CEM lymphocytes; assay type: cell-based; settings: for HIV-1 infection level, HIV-P24 antigen: 7 days post infection, control 0.52; for Cell counts: virus pre-treated 3 hours, infected control 1.06×10^6
Method: Peptides: Peptides [either peptides derived from natural casein or synthetic peptides derived from casein (2-26 amino acids in length, see table 3)] supplied as lyophilized powder were resuspended in RPMI complete medium and added to cell cultures at a final concentrations of 50 to 1000 μg per ml.
Cells: Several types of freshly isolated human cells (primary cells) and cell lines are known to be susceptible to in vitro HIV-1 infection, although essentially any cell displaying even low surface levels of the CD4 molecule can be considered a potential target for HIV-1 infection. Two commonly used human cell lines which are highly sensitive for HIV-1 infection were chosen, CEM and Sup-T1.
CEM is a human T4-lymphoblastoid cell line initially derived by G. E. Foley et al. [(1965), Cancer 18:522] from peripheral blood buffy coat of a person with acute lymphoblastic leukemia. These cells were continuously maintained in suspension in medium, and have been used widely for analysis of infectivity, antiviral agents and neutralizing antibodies.
Virus: The HIV virus strain employed was HIV-1IIIB, originally designated HTLV-IIIB. Concentrated culture fluids of peripheral blood from several patients with AIDS or related diseases were used to establish a permanent productive infection in H-9 cells. This subtype B virus has high capacity to replicate in human T-cell lines. Viral titer was 5.38 ng per ml in stock solution.
HIV-1 P^24 antigen capture assay: An HIV-1 P^24 Antigen capture assay kit employed was designed to quantitate the HIV-1 P^24 core antigen, which is proportionally related to the degree of viral production in cells. This kit was purchased from the AIDS Vaccine program of the SAIC-NCI-Frederick Cancer Research Institute, P.O. Box B, Frederick, Md. 21702, USA and included 96 well plates coated with monoclonal antibody to HIV-1 P^24, primary antibody-rabbit anti-HIV P^24 serum, secondary antibody-Goat anti-rabbit-IgG (H+L) peroxidase conjugated antibody, TMB peroxidase substrate system and lysed HIV-1 P^24 standard. The HIV-1 P^24 antigen capture assay was analyzed by Organon-Technica ELISA reader at 450 nm with a reference at 650 nm.
HIV-1 P^24 antigen capture ELISA: HIV infection was measured with an indirect enzyme immunoassay which detects HIV-1 P^24 core antigens in tissue culture media. Tissue culture supernatant was reacted with primary rabbit anti-HIV-1 P^24 antigen and visualized by peroxidase conjugated goat anti rabbit IgG. The reaction was terminated by adding 4N H2SO4, wherein the intensity of the color developed is proportional to the amount of HIV-1 antigen present in the tissue culture supernatant.
HIV infection of human cultured CD4 cells: For longer incubations, the cells (CEM, Sup-T1) were preincubated with several increasing concentrations of peptides derived from natural casein (50-1000 μg per ml) or synthetic peptides derived from casein (10-500 μg per ml) for 24 (for synthetic and natural peptides) and 48 (only for natural peptides) hours and HIV-1IIIB (45 pg per ml final concentration) was added to each well thereafter. For the shorter incubations (3 hours), HIV-1IIIB was preincubated with the peptides for 3 hours and then added to cells (5000 cells/well) in tissue culture plates. Controls were IF (Infected, cells cultured with HIV-1 and without peptides), UIF (Uninfected, cells cultured without HIV-1 and without peptides) and UIF +Ch (Uninfected+peptides derived from natural casein, cells cultured in the presence of peptides derived from natural casein {50-1000 μg per ml}) to test the effect of peptides derived from natural casein and synthetic peptides derived from casein on cell viability and growth. Cells were counted for viability and proliferation rate on day 7, 10 and day 14 post infection (the day of P^24 antigen culture supernatant harvest). Cells and tissue culture supernatants (media) were harvested and lysed immediately in 1/10 volume of 10% Triton X-100. […]

[6] = 800 cGy, 1.0 mg i.p. daily, days 4-7

For “RPKHPIKHQGLPQ [A, synthetic peptide, N-terminal 13 amino acids of αS1 casein]”, the “Healthy/Total (sugar not detected in urine)” value [1] was 2/5 and the “Urine Sugar” value [1] was “Negative”.
For “RPKHPIKHQG [1a, synthetic peptide, N-terminal 10 amino acids of αS1 casein]”, the “Healthy/Total (sugar not detected in urine)” value [1] was 1/5, the “Urine Sugar” value [1] was “Negative” and the “IPGT TEST 60 min. post load plasma glucose” value [2] was 106 mg/dL. The “IPGT TEST 0 min. (pre-load) plasma glucose” value [2] was 88 mg/dL.
In the case of “RPKHPIKHQGLPQEVLNENLL [synthetic peptide, N-terminal 21 amino acids of αS1 casein]”, the “Healthy/Total (sugar not detected in urine)” value [1] is reported as 2/5, the “Urine Sugar” value [1] is reported as “Negative” and the “IPGT TEST 60 min. post load plasma glucose” value [2] is reported as 138 mg/dL.
“RPKHPIKH [Y, synthetic peptide, N-terminal 8 amino acids of αS1 casein]” was tested, and the “Healthy/Total (sugar not detected in urine)” value [1] was 1/5, the “Urine Sugar” value [1] was “Negative” and the “IPGT TEST 60 min. post load plasma glucose” value [2] was 138 mg/dL. The “IPGT TEST 0 min. (pre-load) plasma glucose” value [2] was 121 mg/dL.
With “RPKHPIKHQGLPQEV [C, synthetic peptide, N-terminal 15 amino acids of αS1 casein]” the “peripheral white blood cell counts, day 10” value ([3]; BALB/c, 600 cGy, 1 mg per mouse intraperitoneal, control 1.67) was 1.72 ×10^6 cells per ml and the “peripheral white blood cell counts, day 12” value ([3]; BALB/c, 600 cGy, 1 mg per mouse intraperitoneal, control 4.64) was 6.54 ×10^6 cells per ml.
With “RPKHPIKHQGL [2a, synthetic peptide, N-terminal 11 amino acids of αS1 casein]” the “prevention of glucosuria (in words)” value [1] was “highly effective”, the “Healthy/Total (sugar not detected in urine)” value [1] was 4/5 and the “Urine Sugar” value [1] was “Negative”. For the same substance, the HDL [4] was 41 mg/dL, the LDL [4] was 221 mg/dL and the “Total cholesterol (TC)” value [4] was 279 mg/dL.
With “RPKHPIKHQGLPQEVL [D, synthetic peptide, N-terminal 16 amino acids of αS1 casein]” the “Healthy/Total (sugar not detected in urine)” value [1] was 2/5 and the “Urine Sugar” value [1] was “Negative”.
“α-S1 1-23: gel filtration fraction of natural casein peptides: amino acid positions 1-23 of the N-terminus of αS1 casein (SEQ ID NO: 22) (RPKHPIKHQGLPQEVLNENLLRF)” was tested, and the “white blood cell reconstitution (in words)” value [3] was “dramatic enhancement”.
For “RPKHPIKHQGLPQEVLNENLLRF [synthetic peptide, N-terminal 23 amino acids of αS1 casein]”, the “Healthy/Total (sugar not detected in urine)” value [1] was 2/5, the “Urine Sugar” value [1] was “Negative” and the “IPGT TEST 60 min. post load plasma glucose” value [2] was 143 mg/dL.
In the case of “κ-casein (106-169): gel filtration fraction comprising a peptide representing amino acid positions 106-169 of κ-casein”, the “white blood cell reconstitution (in words)” value [3] is reported as “dramatic enhancement”.
For “RPKHPIKHQGLPQE [B, synthetic peptide, N-terminal 14 amino acids of αS1 casein]”, the “Healthy/Total (sugar not detected in urine)” value [1] was 2/5, the “Urine Sugar” value [1] was “Negative” and the “IPGT TEST 0 min. (pre-load) plasma glucose” value [2] was 130 mg/dL.
In the case of “RPKHPIKHQGLP [3a, synthetic peptide, N-terminal 12 amino acids of αS1 casein]”, the “prevention of glucosuria (in words)” value [1] is reported as “highly effective”, the “Healthy/Total (sugar not detected in urine)” value [1] is reported as 3/5 and the “Urine Sugar” value [1] is reported as “Negative”. The “increase in platelet counts over control, 10 days post transplantation” value [3, 6] was “up to 35.5%”, the “increase in platelet counts over control, 12 days post transplantation” value [3, 6] was “up to 13.5%” and the “platelet counts, 12 days post transplantation” value [3, 6] was 622000 mL⁻¹. The “platelet counts, 10 days post transplantation” value ([3]; 800 cGy, 1.0 mg i.p. daily, days 4-7, control 169) was 229000 mL⁻¹.
With “RPKHP [3P, synthetic peptide, N-terminal 5 amino acids of αS1 casein]” the “HIV-1 infection level, HIV-P24 antigen” value ([5]; 10 μg per ml) was 0.26 ng P^24 Ag per ml, the Cell counts ([5]; 10 μg per ml) was 1.17×10^6 and the “HIV-1 infection level, HIV-P24 antigen” value ([5]; 25 μg per ml) was 0.18 ng P^24 Ag per ml. For the same substance, the Cell counts ([5]; 25 μg per ml) was 1.26×10^6, the HDL [4] was 42.5 mg/dL and the LDL [4] was 247 mg/dL. The “Total cholesterol (TC)” value [4] was 308 mg/dL.
